In PubChem BioAssay (NCI):
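Values below derive from 48-hour exposures of cells grown in 96-well plates, with endpoints linearly interpolated between the two concentrations bracketing the appropriate inhibition level. GI50 marks 50% less growth. The concentration for full growth arrest is given as TGI.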

Assays:
Experiment in all cases: NCI anticancer screen, dose series, 48 h
HS 578T breast = test system: HS 578T breast
HCT-15 colon = test system: HCT-15 colon
HCC-2998 colon = test system: HCC-2998 colon
COLO 205 colon = test system: COLO 205 colon
ACHN renal = test system: ACHN renal
786-0 renal = test system: 786-0 renal
CAKI-1 renal = test system: CAKI-1 renal
SW-620 colon = test system: SW-620 colon
RPMI-8226 leukemia = test system: RPMI-8226 leukemia
LOX IMVI melanoma = test system: LOX IMVI melanoma
SF-268 CNS = test system: SF-268 CNS
CCRF-CEM leukemia = test system: CCRF-CEM leukemia
HT29 colon = test system: HT29 colon
KM12 colon = test system: KM12 colon
HCT-116 colon = test system: HCT-116 colon
OVCAR-4 ovarian = test system: OVCAR-4 ovarian
SK-MEL-2 melanoma = test system: SK-MEL-2 melanoma
UO-31 renal = test system: UO-31 renal
SN12C renal = test system: SN12C renal
NCI-H460 lung = test system: NCI-H460 lung
SF-295 CNS = test system: SF-295 CNS
RXF 393 renal = test system: RXF 393 renal
SF-539 CNS = test system: SF-539 CNS
EKVX NSCLC = test system: EKVX NSCLC
PC-3 prostate = test system: PC-3 prostate
BT-549 breast = test system: BT-549 breast
MALME-3M melanoma = test system: MALME-3M melanoma
DU-145 prostate = test system: DU-145 prostate
U251 CNS = test system: U251 CNS
OVCAR-3 ovarian = test system: OVCAR-3 ovarian
NCI-H522 lung = test system: NCI-H522 lung
OVCAR-8 ovarian = test system: OVCAR-8 ovarian
MDA-MB-231 breast = test system: MDA-MB-231 breast
HOP-92 NSCLC = test system: HOP-92 NSCLC
SNB-75 CNS = test system: SNB-75 CNS
NCI-H226 lung = test system: NCI-H226 lung
SNB-19 CNS = test system: SNB-19 CNS
MOLT-4 leukemia = test system: MOLT-4 leukemia
SK-MEL-5 melanoma = test system: SK-MEL-5 melanoma
MDA-MB-435 = test system: MDA-MB-435
UACC-257 melanoma = test system: UACC-257 melanoma
OVCAR-5 ovarian = test system: OVCAR-5 ovarian
MCF7 breast = test system: MCF7 breast
HL-60(TB) leukemia = test system: HL-60(TB) leukemia
NCI-H23 lung = test system: NCI-H23 lung
T-47D breast = test system: T-47D breast
NCI/ADR-RES ovarian = test system: NCI/ADR-RES ovarian
UACC-62 melanoma = test system: UACC-62 melanoma
M14 melanoma = test system: M14 melanoma
TK-10 renal = test system: TK-10 renal
SK-OV-3 ovarian = test system: SK-OV-3 ovarian
HOP-62 NSCLC = test system: HOP-62 NSCLC
K-562 leukemia = test system: K-562 leukemia
A498 renal = test system: A498 renal

CCn1cc(C(=O)N/N=C/c2ccc(Br)cc2)c(=O)c2cc(F)c(N3CCNC(C)C3)c(F)c21 (stereo not drawn)
GI50 (HS 578T breast): 1990 nM | TGI (HS 578T breast): 5900 nM | GI50 (HCT-15 colon): 1440 nM | TGI (HCT-15 colon): 2930 nM | GI50 (HCC-2998 colon): 1880 nM | TGI (HCC-2998 colon): 3570 nM | GI50 (COLO 205 colon): 1760 nM | TGI (COLO 205 colon): 3420 nM | GI50 (ACHN renal): 1690 nM | TGI (ACHN renal): 3060 nM | GI50 (786-0 renal): 1680 nM | TGI (786-0 renal): 3210 nM | GI50 (CAKI-1 renal): 1680 nM | TGI (CAKI-1 renal): 3080 nM | GI50 (SW-620 colon): 1710 nM | TGI (SW-620 colon): 3180 nM | GI50 (RPMI-8226 leukemia): 1850 nM | TGI (RPMI-8226 leukemia): 3820 nM | GI50 (LOX IMVI melanoma): 1750 nM | TGI (LOX IMVI melanoma): 3250 nM | GI50 (SF-268 CNS): 1780 nM | TGI (SF-268 CNS): 3450 nM | GI50 (CCRF-CEM leukemia): 1490 nM | TGI (CCRF-CEM leukemia): 3520 nM | GI50 (HT29 colon): 1680 nM | TGI (HT29 colon): 3180 nM | GI50 (KM12 colon): 1860 nM | TGI (KM12 colon): 3500 nM | GI50 (HCT-116 colon): 1540 nM | TGI (HCT-116 colon): 3160 nM | GI50 (OVCAR-4 ovarian): 2480 nM | TGI (OVCAR-4 ovarian): 7540 nM | GI50 (SK-MEL-2 melanoma): 2020 nM | TGI (SK-MEL-2 melanoma): 4100 nM | GI50 (UO-31 renal): 1560 nM | TGI (UO-31 renal): 2920 nM | GI50 (SN12C renal): 1570 nM | TGI (SN12C renal): 3010 nM | GI50 (NCI-H460 lung): 1610 nM | TGI (NCI-H460 lung): 3160 nM | GI50 (SF-295 CNS): 1850 nM | TGI (SF-295 CNS): 3510 nM | GI50 (RXF 393 renal): 1630 nM | TGI (RXF 393 renal): 3070 nM | GI50 (SF-539 CNS): 1690 nM | TGI (SF-539 CNS): 3100 nM | GI50 (EKVX NSCLC): 1590 nM | TGI (EKVX NSCLC): 3110 nM | GI50 (PC-3 prostate): 1620 nM | TGI (PC-3 prostate): 3140 nM | GI50 (BT-549 breast): 1590 nM | TGI (BT-549 breast): 3230 nM | GI50 (MALME-3M melanoma): 1780 nM | TGI (MALME-3M melanoma): 3420 nM | GI50 (DU-145 prostate): 1740 nM | TGI (DU-145 prostate): 3180 nM | GI50 (U251 CNS): 1660 nM | TGI (U251 CNS): 3120 nM | GI50 (OVCAR-3 ovarian): 1790 nM | TGI (OVCAR-3 ovarian): 3380 nM | GI50 (NCI-H522 lung): 1850 nM | TGI (NCI-H522 lung): 3550 nM | GI50 (OVCAR-8 ovarian): 1740 nM | TGI (OVCAR-8 ovarian): 3320 nM | GI50 (MDA-MB-231 breast): 1840 nM | TGI (MDA-MB-231 breast): 3370 nM | GI50 (HOP-92 NSCLC): 1210 nM | TGI (HOP-92 NSCLC): 2580 nM | GI50 (SNB-75 CNS): 1570 nM | TGI (SNB-75 CNS): 2990 nM | GI50 (NCI-H226 lung): 2150 nM | TGI (NCI-H226 lung): 6130 nM | GI50 (SNB-19 CNS): 1700 nM | TGI (SNB-19 CNS): 3080 nM | GI50 (MOLT-4 leukemia): 1680 nM | TGI (MOLT-4 leukemia): 3470 nM | GI50 (SK-MEL-5 melanoma): 1940 nM | TGI (SK-MEL-5 melanoma): 4030 nM | GI50 (MDA-MB-435): 1730 nM | TGI (MDA-MB-435): 3150 nM | GI50 (UACC-257 melanoma): 1680 nM | TGI (UACC-257 melanoma): 3210 nM | GI50 (OVCAR-5 ovarian): 1730 nM | TGI (OVCAR-5 ovarian): 3220 nM | GI50 (MCF7 breast): 1560 nM | TGI (MCF7 breast): 3130 nM | GI50 (HL-60(TB) leukemia): 1880 nM | TGI (HL-60(TB) leukemia): 3800 nM | GI50 (NCI-H23 lung): 1840 nM | TGI (NCI-H23 lung): 3540 nM | GI50 (T-47D breast): 1650 nM | TGI (T-47D breast): 3470 nM | GI50 (NCI/ADR-RES ovarian): 1950 nM | TGI (NCI/ADR-RES ovarian): 3690 nM | GI50 (UACC-62 melanoma): 1880 nM | TGI (UACC-62 melanoma): 3360 nM | GI50 (M14 melanoma): 1910 nM | TGI (M14 melanoma): 3590 nM | GI50 (TK-10 renal): 1740 nM | TGI (TK-10 renal): 3170 nM | GI50 (SK-OV-3 ovarian): 1930 nM | TGI (SK-OV-3 ovarian): 3680 nM | GI50 (HOP-62 NSCLC): 1720 nM | TGI (HOP-62 NSCLC): 3170 nM | GI50 (K-562 leukemia): 1500 nM | TGI (K-562 leukemia): 3170 nM | GI50 (A498 renal): 1780 nM | TGI (A498 renal): 5300 nM
